We go through 18 compounds from patent US11247965B2 (VenatoRx Pharmaceuticals, Inc., priority 2017, dated 2022).

Series [1] has as its system HBV replication in HepAD38 cells. As to the kind of experiment: Anti-HBV activity in HepAD38 cells, extracellular HBV DNA by QPCR. The series is classed as cell-based, HBV (genotype D, serotype ayw). The note with it: Hepatitis B virus, HePAD38, 168 h, read-out: Anti-HBV EC50, HepAD38 cells, extracellular HBV DNA by QPCR, 7 days of incubation. The procedure:
The anti-HBV activity of the Capsid Assembly Modulators (CAMs) was evaluated in a cell based assay utilizing the human hepatoma cell line HepAD38 (Ladner, S K., et al., 1998). HepAD38 cells were derived from the parental line, HepG2, that were stably transfected with a construct containing an HBV genome (genotype D, serotype ayw) under the control of a tetracycline repressible CMV promoter. Upon removal of tetracycline, viral pre-genomic RNA (pgRNA) and mRNAs are expressed and infectious viral particles are assembled and secreted into the culture medium providing a reliable, robust system to measure multiple steps of the HBV life cycle. Disruption of capsid formation results in reduced levels of DNA-containing virus particles that are released into the culture supernatant. To quantify the effect of CAMs on HBV replication, we developed a sensitive QPCR-based assay that measures extracellular HBV DNA levels upon treatment of HepAD38 cells with various concentrations of test compounds.
HepAD38 cells were maintained in DMEM/F12 medium containing 10% FBS, 400 μg/mL G418 and 0.3 μg/mL tetracycline (tet+medium) to maintain repression of HBV replication. To evaluate each compound, HepAD38 cells were seeded into 24-well collagen coated culture plates (Corning BioCoat) at a density of 200,000 cells per well in 1 mL of tet+medium and allowed to adhere overnight at 37° C., 5% CO2 in a humidified incubator. The following day, test articles were subjected to half-logo serial dilutions, ranging from 30 μM to 10 nM, in 100% DMSO at 200× the desired final assay concentration. Tetracycline was removed from the cells by aspirating the tet+medium and washing the cells once with growth medium lacking tetracycline (tet-). Various concentrations of each compound were added to the appropriate wells (1:200 dilution) and the plates were returned to the incubator. Following 7 days of incubation, culture supernatants were harvested and HBV DNA levels were evaluated by QPCR and compared to the vehicle treated control wells (i.e. DMSO alone).
To quantify HBV DNA levels, cell culture supernatants were diluted 1:10 in sterile, nuclease-free water (Gibco). The diluted supernatants were subsequently added to a PCR master mix containing 1× Roche Light Cycler Master Mix, 0.5 μM forward primer, 0.5 μM reverse primer (Fwd:
0.2 μM Roche Universal Probe Library Probe 25. The volume was brought to 20 μL with nuclease-free water and amplification of the HBV target sequence was performed using a Roche LightCycler 480 QPCR instrument. PCR extended out to 45 cycles with each cycle consisting of a denaturation step at 95° C. for 10 sec., followed by an annealing step at 60° C. for 10 sec. and a brief extension step at 72° C. for 1 sec.
Extracellular HBV DNA levels, expressed in copies/mL, were determined by comparison to a standard curve (10^2-10^9 copies/mL) using the Roche LightCycler analysis software. These values were subsequently converted to percent inhibition of HBV replication by dividing the HBV DNA levels in the experimental samples with those obtained from the vehicle control (˜1-2×10^5 copies/mL). Potency, expressed as an EC50 (the effective concentration required to inhibit […] of HBV replication), was calculated from the dose-response curve using a 4-parameter non-linear regression analysis (GraphPad Prism). The nucleoside analog inhibitor entecavir was used as a positive control to validate each assay run. The EC50 value of entecavir in the HepAD38 assay was 0.5 nM, as previously reported in the literature.

The nature of series [2]: In vitro cytotoxicity, MTT cell viability assay in HepG2 cells. The series is classed as cell-based. The note with it: human, Cytotoxicity CC50. The method, then:
To evaluate antiviral selectivity, the cytotoxic activity of each compound was determined using a standard cell viability assay performed on the parental HepG2 cell line. Cell viability was determined by measuring the conversion of 3-(4,5-dimethylthiazol-2-yl)-2,5-diphenyltetrazolium bromide (MTT) to the insoluble formazan salt crystal that occurs in live cells. Briefly, HepG2 cells were seeded in 96-well plates at a density of 20,000 cells per well in EMEM+10% FBS (complete growth medium) and allowed to adhere overnight in a 37° C., 5% CO2 humidified incubator. The next day, test agents were prepared by performing 8 half-log10 serial dilutions in 100% DMSO at 200× the final desired concentration in the assay. Compounds were tested over a range of concentrations from 30 μM to 1.0 nM in the assay. HepG2 cells were incubated in the presence of various concentrations of CAMs for 7 days in a 37° C., 5% CO2 humidified incubator. At the completion of the 7-day incubation period, MTT reagent was added to each well and the mixture was incubated for an additional 3-4 hours. At the completion of the incubation period, all wells were aspirated to remove the culture medium. The formazan crystals were solubilized from the cell monolayers with 100% DMSO. Plates were briefly mixed on an orbital shaker and absorbance was measured at 492 nm using a Perkin-Elmer EnVision multi-label plate reader. All absorbance values were converted to a percentage of the signal obtained from the vehicle treated controls. Absorbance values at 492 nm are directly proportional to the number of viable cells present in the sample. A CC50 value (cytotoxic concentration that results in loss of 50% cell viability) was calculated from the dose-response curve by 4-parameter, non-linear regression analysis using the GraphPad Prism software. The positive control compound, staurosporine, reduced the viability of HepG2 cells in a dose-dependent manner (CC50=100 nM).
On the technique in general: Tetrazolium assays rely on reduction of a dye to a coloured formazan, in cell work by metabolically active cells.

As a reminder, the EC50 is the midpoint of the concentration-response curve. By CC50 is commonly meant the concentration that lowers cell viability or growth by half. A high value points to better tolerance by the cells. As for `Cc1cc(NC(=O)c2ccc(F)c(C(F)(F)C(=O)N3CC=C(B(O)O)CC3)c2)ccc1F` [Example 154, (1-(2,2-difluoro-2-(2-fluoro-5-((4-fluoro-3-methylphenyl)carbamoyl)phenyl)acetyl)-1,2,3,6-tetrahydropyridin-4-yl)boronic acid], the EC50 in series [1] was less than 5 µM. Further, in series [2], the CC50 at 7 days lay in the range of 5 to 30 µM.

As for `Cc1cc(NC(=O)c2ccc(F)c(C(F)(F)C(=O)N3C[C@H]4CC[C@@H](C3)C4=O)c2)ccc1F` [Example 280, 3-(1,1-difluoro-2-oxo-2-((1R,5S)-8-oxo-3-azabicyclo[3.2.1]octan-3-yl)ethyl)-4-fluoro-N-(4-fluoro-3-methylphenyl)benzamide], the EC50 in series [1] is less than 5 µM. The same compound gave a CC50 at 7 days in series [2] of 5 to 30 µM.

As for `CC[C@@H](C)NC(=O)C(F)(F)c1c(C(=O)Nc2ccc(F)c(C)c2)ccn1C` [Example 110, (R)-2-(2-(sec-butylamino)-1,1-difluoro-2-oxoethyl)-N-(4-fluoro-3-methylphenyl)-1-methyl-1H-pyrrole-3-carboxamide], the EC50 in series [1] is more than 30 µM. In series [2], this compound displayed a CC50 at 7 days of more than 30 µM.

For `Cc1cc(NC(=O)c2cc(C(F)(F)C(=O)N[C@@H]3CCCC[C@H]3O)n(C)c2)ccc1F` [Example 127, 5-(1,1-difluoro-2-(((1R,2R)-2-hydroxycyclohexyl)amino)-2-oxoethyl)-N-(4-fluoro-3-methylphenyl)-1-methyl-1H-pyrrole-3-carboxamide], the EC50 in series [1] is less than 5 µM. In series [2], this compound yielded a CC50 at 7 days of more than 30 µM.

`O=C(Nc1ccc(F)c(Br)c1)c1ccc(Cl)c(C(F)(F)C(=O)N2CCC(O)CC2)c1` [Example 43, N-(3-bromo-4-fluorophenyl)-4-chloro-3-(1,1-difluoro-2-(4-hydroxypiperidin-1-yl)-2-oxoethyl)benzamide]: the EC50 in series [1] was less than 5 µM. This compound displayed a CC50 at 7 days in series [2] of 5 to 30 µM.

On to `Cc1cc(NC(=O)c2ccc(F)c(C(F)(F)C(=O)N3[C@@H]4CCC[C@H]3CC(O)C4)c2)ccc1F` (stereo partly drawn) [Example 202, 3-(1,1-difluoro-2-((1R,5S)-3-hydroxy-9-azabicyclo[3.3.1]nonan-9-yl)-2-oxoethyl)-4-fluoro-N-(4-fluoro-3-methylphenyl)benzamide], for which, in series [1], the EC50 is less than 5 µM. Also, the CC50 at 7 days in series [2] was in the range of 5 to 30 µM.

With `O=C(Nc1ccc(F)c(Br)c1)c1ccc(F)c(C(F)(F)C(=O)N2[C@@H]3CC[C@H]2C[C@@H](O)C3)c1` [Example 176, N-(3-bromo-4-fluorophenyl)-3-(1,1-difluoro-2-((1R,3r,5S)-3-hydroxy-8-azabicyclo[3.2.1]octan-8-yl)-2-oxoethyl)-4-fluorobenzamide], the EC50 in series [1] is less than 5 µM. For the same compound, the CC50 at 7 days in series [2] was in the range of 5 to 30 µM.

On to `Cc1cc(NC(=O)c2ccc(F)c(C(F)(F)C(=O)N3[C@@H]4CC[C@H]3CC(O)(CN)C4)c2)ccc1F` (stereo partly drawn) [Example 276, 3-(2-((1R,5S)-3-(aminomethyl)-3-hydroxy-8-azabicyclo[3.2.1]octan-8-yl)-1,1-difluoro-2-oxoethyl)-4-fluoro-N-(4-fluoro-3-methylphenyl)benzamide], for which, in series [1], the EC50 was less than 5 µM. The compound also yielded a CC50 at 7 days in series [2] of 5 to 30 µM.

For the compound `Cc1cc(NC(=O)c2ccn(C)c2C(F)(F)C(=O)N2CCC(O)CC2)ccc1F` [Example 96, 2-(1,1-difluoro-2-(4-hydroxypiperidin-1-yl)-2-oxoethyl)-N-(4-fluoro-3-methylphenyl)-1-methyl-1H-pyrrole-3-carboxamide], the concentration for a half-maximal effect (EC50) in series [1] lay within 5 to 30 µM. In series [2], this compound came in with a CC50 at 7 days of more than 30 µM.

Regarding `Cc1cc(NC(=O)c2ccc(F)c(C(F)(F)C(=O)N3CCc4sc(N)nc4C3)c2)ccc1F` [Example 308, 3-(2-(2-amino-6,7-dihydrothiazolo[4,5-c]pyridin-5(4H)-yl)-1,1-difluoro-2-oxoethyl)-4-fluoro-N-(4-fluoro-3-methylphenyl)benzamide], the EC50 in series [1] was less than 5 µM. The same compound yielded a CC50 at 7 days in series [2] of 5 to 30 µM.

In the case of `CC(C)n1cc(NC(=O)c2ccc(F)c(C(F)(F)C(=O)N3CCC(O)(CO)CC3)c2)cn1` [Example 186, 3-(1,1-difluoro-2-(4-hydroxy-4-(hydroxymethyl)piperidin-1-yl)-2-oxoethyl)-4-fluoro-N-(1-isopropyl-1H-pyrazol-4-yl)benzamide], the concentration for a half-maximal effect (EC50) in series [1] is 5 to 30 µM. Besides, in series [2], the half-maximal cytotoxic concentration (CC50) at 7 days was more than 30 µM.

Take `O=C(Nc1ccc(F)c(Br)c1)c1ccc(F)c(C(F)(F)C(=O)N2CCC(O)CC2)c1` [Example 87, N-(3-bromo-4-fluorophenyl)-3-(1,1-difluoro-2-(4-hydroxypiperidin-1-yl)-2-oxoethyl)-4-fluorobenzamide]: in series [1], the EC50 is less than 5 µM. The compound also registered a cytotoxic concentration (CC50) at 7 days in series [2] of 5 to 30 µM.

With `Cn1ccc(C(=O)Nc2ccc(F)c(Cl)c2)c1C(F)(F)C(=O)NC(C)(C)C` [Example 137, 2-(2-(tert-butylamino)-1,1-difluoro-2-oxoethyl)-N-(3-chloro-4-fluorophenyl)-1-methyl-1H-pyrrole-3-carboxamide], the EC50 in series [1] was less than 5 µM. Further, the CC50 at 7 days in series [2] was more than 30 µM.

Take `CC(C)(C)NC(=O)C(O)c1cc(C(=O)Nc2ccc(F)c(F)c2)ccc1F` (stereo not drawn) [Example 119, 3-(2-(tert-butylamino)-1-hydroxy-2-oxoethyl)-N-(3,4-difluorophenyl)-4-fluorobenzamide]: the EC50 in series [1] is 5 to 30 µM. This compound came in with a CC50 at 7 days in series [2] of 5 to 30 µM.

Take `Cc1cc(NC(=O)c2ccc(F)c(C(F)(F)C(=O)N3CCC(O)C(F)(F)C3)c2)ccc1F` (stereo not drawn) [Example 77, 3-(2-(3,3-difluoro-4-hydroxypiperidin-1-yl)-1,1-difluoro-2-oxoethyl)-4-fluoro-N-(4-fluoro-3-methylphenyl)benzamide]: the EC50 in series [1] is less than 5 µM. In series [2], this compound displayed a CC50 at 7 days of 5 to 30 µM.

For the compound `Cc1cc(NC(=O)c2ccc(N)c(C(F)(F)C(=O)N3CCC(O)CC3)c2)ccc1F` [Example 299, 4-amino-3-(1,1-difluoro-2-(4-hydroxypiperidin-1-yl)-2-oxoethyl)-N-(4-fluoro-3-methylphenyl)benzamide], the EC50 in series [1] was less than 5 µM. This compound came in with a CC50 at 7 days in series [2] of 5 to 30 µM.

As for `Cc1cc(NC(=O)c2ccc(F)c(C(F)(F)C(=O)N3[C@@H]4CC[C@H]3COC4)c2)ccc1F` [Example 213, 3-(2-((1R,5S)-3-oxa-8-azabicyclo[3.2.1]octan-8-yl)-1,1-difluoro-2-oxoethyl)-4-fluoro-N-(4-fluoro-3-methylphenyl)benzamide], the EC50 in series [1] is less than 5 µM. In series [2], this compound gave a CC50 at 7 days of more than 30 µM.

Consider `O=C(Nc1ccc(F)c(F)c1)c1ccc(F)c(C(F)(F)C(=O)NC[C@H](O)CO)c1` [Example 54, (S)—N-(3,4-difluorophenyl)-3-(2-((2,3-dihydroxypropyl)amino)-1,1-difluoro-2-oxoethyl)-4-fluorobenzamide], for which, in series [1], the EC50 is less than 5 µM. The compound also came in with a CC50 at 7 days in series [2] of more than 30 µM.
